In experiment [1] the target is T1, human E3 ligase component cereblon (CRBN) (Homo sapiens, UniProt Q96SW2).
T1 construct: host or cells: HEK293T
As to the kind of experiment: Cereblon (CRBN) target engagement, NanoBRET TE Intracellular E3 Ligase Assay in transfected HEK-293T cells. Conditions: read-out: CRBN Binding EC50. A digest of the protocol: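 Tracer displacement was read as the 610/450 nm BRET signal after 2 h at 37° C with an 11-point dilution series, typically 10 μM to 100 pM. Live HEK-293T cells expressed NanoLuc fused N-terminal to human CRBN together with DDB1. IC50 was fitted with a four-parameter logistic model.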
Background: BRET reads energy transfer from a luciferase to a nearby fluorophore.

The target of another experiment is T2, IKZF1 (Ikaros) (Homo sapiens, UniProt Q13422).
T2 construct: mScarlet (behind P2A) (C, cleaved yes); expressed in transfected cells
The experiment can be described thus: IKZF1 reporter degradation assay (HEK 293T IKZF1-mNeonGreen reporter cell line). It is filed as cell-based. The conditions noted are these: HEK 293T IKZF1-mNeonGreen reporter, 24 hours incubation. A digest of the protocol:
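Readout: percent of cells positive for the mNeonGreen-tagged IKZF reporter, imaged after 24 h of compound exposure at 37 °C in stable HEK 293T lines. The P2A-linked mScarlet defined the cells. DC50 values came from four-parameter logistic regression.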

T1 sequence (Q96SW2 whole entry): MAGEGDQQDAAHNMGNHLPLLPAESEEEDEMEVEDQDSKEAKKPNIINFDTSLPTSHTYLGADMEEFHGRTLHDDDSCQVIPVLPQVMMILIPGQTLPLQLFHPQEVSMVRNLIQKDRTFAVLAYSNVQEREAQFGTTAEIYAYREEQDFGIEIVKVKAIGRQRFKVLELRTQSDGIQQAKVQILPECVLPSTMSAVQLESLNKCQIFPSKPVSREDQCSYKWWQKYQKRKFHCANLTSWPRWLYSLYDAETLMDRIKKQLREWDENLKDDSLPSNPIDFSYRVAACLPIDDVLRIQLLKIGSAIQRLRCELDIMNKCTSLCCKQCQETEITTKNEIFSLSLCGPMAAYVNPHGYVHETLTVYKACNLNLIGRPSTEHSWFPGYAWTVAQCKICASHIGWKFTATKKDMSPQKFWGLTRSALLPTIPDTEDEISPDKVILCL
T1 sequence (Q16531 whole entry partner): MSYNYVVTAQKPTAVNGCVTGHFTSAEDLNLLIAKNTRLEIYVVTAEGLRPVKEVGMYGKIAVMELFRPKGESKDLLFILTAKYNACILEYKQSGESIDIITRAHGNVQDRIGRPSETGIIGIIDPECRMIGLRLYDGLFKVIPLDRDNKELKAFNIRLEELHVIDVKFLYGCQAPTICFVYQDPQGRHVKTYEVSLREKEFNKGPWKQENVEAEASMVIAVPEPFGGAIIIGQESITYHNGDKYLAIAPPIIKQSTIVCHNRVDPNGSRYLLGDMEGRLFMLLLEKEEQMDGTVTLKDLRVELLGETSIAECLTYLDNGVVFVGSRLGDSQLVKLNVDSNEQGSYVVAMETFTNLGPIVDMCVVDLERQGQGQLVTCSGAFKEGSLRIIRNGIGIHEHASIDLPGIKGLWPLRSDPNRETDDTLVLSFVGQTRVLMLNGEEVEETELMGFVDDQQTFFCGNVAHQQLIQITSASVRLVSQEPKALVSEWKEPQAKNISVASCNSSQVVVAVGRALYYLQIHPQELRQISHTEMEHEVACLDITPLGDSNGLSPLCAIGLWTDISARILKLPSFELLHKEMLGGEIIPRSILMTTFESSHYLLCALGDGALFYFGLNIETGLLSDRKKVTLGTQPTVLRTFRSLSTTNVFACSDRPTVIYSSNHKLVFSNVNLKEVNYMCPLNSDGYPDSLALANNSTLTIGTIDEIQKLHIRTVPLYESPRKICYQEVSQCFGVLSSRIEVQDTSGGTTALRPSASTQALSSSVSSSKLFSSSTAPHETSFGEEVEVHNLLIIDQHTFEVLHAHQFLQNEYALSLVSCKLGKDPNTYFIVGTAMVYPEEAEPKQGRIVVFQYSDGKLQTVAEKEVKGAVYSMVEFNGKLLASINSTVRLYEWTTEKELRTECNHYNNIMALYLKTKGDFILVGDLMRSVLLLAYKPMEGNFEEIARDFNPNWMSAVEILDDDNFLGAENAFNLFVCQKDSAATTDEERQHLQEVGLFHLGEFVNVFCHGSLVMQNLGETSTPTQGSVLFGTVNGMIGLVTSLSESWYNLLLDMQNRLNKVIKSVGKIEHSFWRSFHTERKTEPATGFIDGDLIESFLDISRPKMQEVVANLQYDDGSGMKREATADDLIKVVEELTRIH
T2 sequence (Q96SW2 whole entry partner): as the sequence (Q96SW2 whole entry) above
T2 sequence (Q16531 whole entry partner): as the sequence (Q16531 whole entry partner) above
T2 sequence (Q13422 whole entry): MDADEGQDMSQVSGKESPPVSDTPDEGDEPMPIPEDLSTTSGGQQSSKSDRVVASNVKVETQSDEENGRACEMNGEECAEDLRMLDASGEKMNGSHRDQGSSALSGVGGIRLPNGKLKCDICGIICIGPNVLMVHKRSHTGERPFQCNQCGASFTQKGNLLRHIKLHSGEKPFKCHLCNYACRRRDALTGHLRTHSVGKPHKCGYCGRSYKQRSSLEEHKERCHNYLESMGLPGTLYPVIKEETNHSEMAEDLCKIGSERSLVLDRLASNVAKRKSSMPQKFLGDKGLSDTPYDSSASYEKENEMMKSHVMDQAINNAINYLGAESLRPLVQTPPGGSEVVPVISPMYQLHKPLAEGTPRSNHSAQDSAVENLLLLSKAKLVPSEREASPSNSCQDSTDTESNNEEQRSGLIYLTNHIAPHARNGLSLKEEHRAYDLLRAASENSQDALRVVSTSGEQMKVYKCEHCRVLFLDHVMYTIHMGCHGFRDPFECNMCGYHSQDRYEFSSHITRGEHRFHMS

One may read the EC50 as the concentration at which the effect is half-maximal. By DC50 is commonly meant the midpoint of the concentration-degradation curve. Higher therefore signals a less potent degrader. Consider `CC12CC(C(=O)N3CCC(C4CN([C@H]5CCCC[C@@H]5Oc5ccc6c(c5)CN(C5CCC(=O)NC5=O)C6=O)C4)CC3)(C1)C2` (stereo partly drawn) [Compound 28-A, 3-(5-(((1S,2S)-2-(3-(1-(3-methylbicyclo[1.1.1]pentane-1-carbonyl)piperidin-4-yl)azetidin-1-yl)cyclohexyl)oxy)-1-oxoisoindolin-2-yl)piperidine-2,6-dione], for which the EC50 in experiment [1] came out at 0.003 µM. In addition, at IKZF1 (Ikaros), the DC50 was > 30 µM.

With `O=C1CCC(N2Cc3cc(O[C@H]4CCCC[C@@H]4N4CC(C5CCN(C(=O)C6CC(F)(F)C6)CC5)C4)ccc3C2=O)C(=O)N1` (stereo partly drawn) [Compound 32-A, 3-(5-(((1S,2S)-2-(3-(1-(3,3-difluorocyclobutane-1-carbonyl)piperidin-4-yl)azetidin-1-yl)cyclohexyl)oxy)-1-oxoisoindolin-2-yl)piperidine-2,6-dione], the EC50 in experiment [1] stood at 0.005 µM. The DC50 on IKZF1 (Ikaros) is > 30 µM.

Take `O=C1CCC(N2Cc3cc(O[C@H]4CCCC[C@@H]4N4CC(C5CCOC5)C4)ccc3C2=O)C(=O)N1` (stereo partly drawn) [Compound 14-A, 3-(1-oxo-5-(((1S,2S)-2-(3-(tetrahydrofuran-3-yl)azetidin-1-yl)cyclohexyl)oxy)isoindolin-2-yl)piperidine-2,6-dione]: the EC50 in experiment [1] was 0.039 µM. Moreover, on IKZF1 (Ikaros), the DC50 was > 30 µM.

Regarding `N#CC1(C(=O)N2CCC(C3CN([C@H]4CCCC[C@@H]4Oc4ccc5c(c4)CN(C4CCC(=O)NC4=O)C5=O)C3)CC2)CC1` (stereo partly drawn) [Compound 27-A, 1-(4-(1-((1S,2S)-2-((2-(2,6-dioxopiperidin-3-yl)-1-oxoisoindolin-5-yl)oxy)cyclohexyl)azetidin-3-yl)piperidine-1-carbonyl)cyclopropane-1-carbonitrile], in experiment [1], the half-maximal effective concentration (EC50) is 0.01 µM. For the same compound, the DC50 on IKZF1 (Ikaros) is ≥ 30 µM.

`CC1(C(=O)N2CCC(C3CN([C@H]4CCCC[C@@H]4Oc4ccc5c(c4)CN(C4CCC(=O)NC4=O)C5=O)C3)CC2)COC1` (stereo partly drawn) [Compound 29-A, 3-(5-(((1S,2S)-2-(3-(1-(3-methyloxetane-3-carbonyl)piperidin-4-yl)azetidin-1-yl)cyclohexyl)oxy)-1-oxoisoindolin-2-yl)piperidine-2,6-dione]: in experiment [1], the EC50 stood at 0.067 µM. The half-maximal degradation concentration (DC50) at IKZF1 (Ikaros) was > 30 µM.

In the case of `CC1CC1C(=O)N1CCC(C2CN([C@H]3CCCC[C@@H]3Oc3ccc4c(c3)CN(C3CCC(=O)NC3=O)C4=O)C2)CC1` (stereo partly drawn) [Compound 35-A, 3-(5-(((1S,2S)-2-(3-(1-(2-methylcyclopropane-1-carbonyl)piperidin-4-yl)azetidin-1-yl)cyclohexyl)oxy)-1-oxoisoindolin-2-yl)piperidine-2,6-dione], the EC50 in experiment [1] is 0.008 µM. Moreover, the DC50 on IKZF1 (Ikaros) was > 30 µM.

Turning to `O=C1CCC(N2Cc3cc(O[C@H]4CCCC[C@@H]4N4CC(C5CCN(C(=O)C6(F)CC6)CC5)C4)ccc3C2=O)C(=O)N1` (stereo partly drawn) [Compound 42-A, 3-(5-(((1S,2S)-2-(3-(1-(1-fluorocyclopropane-1-carbonyl)piperidin-4-yl)azetidin-1-yl)cyclohexyl)oxy)-1-oxoisoindolin-2-yl)piperidine-2,6-dione], the 50% effective concentration (EC50) in experiment [1] was 0.003 µM. In addition, the DC50 on IKZF1 (Ikaros) is > 30 µM.

For `O=C1CCC(N2Cc3cc(O[C@H]4CCCC[C@@H]4N4CC(C5CCN(C(=O)CC6CC6)CC5)C4)ccc3C2=O)C(=O)N1` (stereo partly drawn) [Compound 34-A, 3-(5-(((1S,2S)-2-(3-(1-(2-cyclopropylacetyl)piperidin-4-yl)azetidin-1-yl)cyclohexyl)oxy)-1-oxoisoindolin-2-yl)piperidine-2,6-dione], the EC50 in experiment [1] stood at 0.01 µM. Further, on IKZF1 (Ikaros), the DC50 was > 30 µM.

Consider `N#CC1(C(=O)N2CCC(C3CN([C@H]4CCCC[C@@H]4Oc4ccc5c(c4)CN(C4CCC(=O)NC4=O)C5=O)C3)CC2)CCC1` (stereo partly drawn) [Compound 30-A, 1-(4-(1-((1S,2S)-2-((2-(2,6-dioxopiperidin-3-yl)-1-oxoisoindolin-5-yl)oxy)cyclohexyl)azetidin-3-yl)piperidine-1-carbonyl)cyclobutane-1-carbonitrile], for which the EC50 in experiment [1] turned out to be 0.004 µM. Further, the DC50 on IKZF1 (Ikaros) is > 30 µM.

Take `CC1(C(=O)N2CCC(C3CN([C@H]4CCCC[C@@H]4Oc4ccc5c(c4)CN(C4CCC(=O)NC4=O)C5=O)C3)CC2)CC1` (stereo partly drawn) [Compound 31-A, 3-(5-(((1S,2S)-2-(3-(1-(1-methylcyclopropane-1-carbonyl)piperidin-4-yl)azetidin-1-yl)cyclohexyl)oxy)-1-oxoisoindolin-2-yl)piperidine-2,6-dione]: in experiment [1], the EC50 worked out at 0.006 µM. For the same compound, the DC50 at IKZF1 (Ikaros) was > 30 µM.

Take `O=C1CCC(N2Cc3cc(O[C@H]4CCCC[C@@H]4N4CC(c5ccc6cccnc6c5)C4)ccc3C2=O)C(=O)N1` (stereo partly drawn) [Compound 87-B, 3-(1-oxo-5-(((1S,2S)-2-(3-(quinolin-7-yl)azetidin-1-yl)cyclohexyl)oxy)isoindolin-2-yl)piperidine-2,6-dione]: in experiment [1], the EC50 is 0.003 µM. Moreover, on IKZF1 (Ikaros), the DC50 was > 30 µM.

Turning to `CC1(C(=O)N2CCC(C3CN([C@H]4CCCC[C@@H]4Oc4ccc5c(c4)CN(C4CCC(=O)NC4=O)C5=O)C3)CC2)CCCC1` (stereo partly drawn) [Compound 33-A, 3-(5-(((1S,2S)-2-(3-(1-(1-methylcyclopentane-1-carbonyl)piperidin-4-yl)azetidin-1-yl)cyclohexyl)oxy)-1-oxoisoindolin-2-yl)piperidine-2,6-dione], the EC50 in experiment [1] was 0.007 µM. Further, the DC50 at IKZF1 (Ikaros) was > 30 µM.

For `O=C1CCC(N2Cc3cc(O[C@H]4CCCC[C@@H]4N4CC(C5CCOCC5F)C4)ccc3C2=O)C(=O)N1` (stereo partly drawn) [Compound 55-A, 3-(5-(((1S,2S)-2-(3-(3-fluorotetrahydro-2H-pyran-4-yl)azetidin-1-yl)cyclohexyl)oxy)-1-oxoisoindolin-2-yl)piperidine-2,6-dione], the EC50 in experiment [1] worked out at 0.014 µM. Besides, the DC50 on IKZF1 (Ikaros) is > 30 µM.

Turning to `O=C1CCC(N2Cc3cc(O[C@H]4CCCC[C@@H]4N4CC(C5CCN(S(=O)(=O)C6CCC6)CC5)C4)ccc3C2=O)C(=O)N1` (stereo partly drawn) [Compound 57-A, 3-(5-(((1S,2S)-2-(3-(1-(cyclobutylsulfonyl)piperidin-4-yl)azetidin-1-yl)cyclohexyl)oxy)-1-oxoisoindolin-2-yl)piperidine-2,6-dione], the EC50 in experiment [1] was 0.003 µM. On IKZF1 (Ikaros), the DC50 is > 30 µM.

(Values after patent US20250100996A1, “HETEROCYCLOALKYL AND HETEROARYL COMPOUNDS AND PHARMACEUTICAL COMPOSITIONS THAT MODULATE IKZF2” (Plexium, Inc., priority 2021, published 2025).)
